This assay deals with Phosphatidylinositol 4,5-bisphosphate 3-kinase catalytic subunit alpha isoform (Homo sapiens, UniProt P42336). Nature of the assay: Inhibition of PI3Kalpha.
Chain of Phosphatidylinositol 4,5-bisphosphate 3-kinase catalytic subunit alpha isoform (P42336 whole entry, canonical isoform): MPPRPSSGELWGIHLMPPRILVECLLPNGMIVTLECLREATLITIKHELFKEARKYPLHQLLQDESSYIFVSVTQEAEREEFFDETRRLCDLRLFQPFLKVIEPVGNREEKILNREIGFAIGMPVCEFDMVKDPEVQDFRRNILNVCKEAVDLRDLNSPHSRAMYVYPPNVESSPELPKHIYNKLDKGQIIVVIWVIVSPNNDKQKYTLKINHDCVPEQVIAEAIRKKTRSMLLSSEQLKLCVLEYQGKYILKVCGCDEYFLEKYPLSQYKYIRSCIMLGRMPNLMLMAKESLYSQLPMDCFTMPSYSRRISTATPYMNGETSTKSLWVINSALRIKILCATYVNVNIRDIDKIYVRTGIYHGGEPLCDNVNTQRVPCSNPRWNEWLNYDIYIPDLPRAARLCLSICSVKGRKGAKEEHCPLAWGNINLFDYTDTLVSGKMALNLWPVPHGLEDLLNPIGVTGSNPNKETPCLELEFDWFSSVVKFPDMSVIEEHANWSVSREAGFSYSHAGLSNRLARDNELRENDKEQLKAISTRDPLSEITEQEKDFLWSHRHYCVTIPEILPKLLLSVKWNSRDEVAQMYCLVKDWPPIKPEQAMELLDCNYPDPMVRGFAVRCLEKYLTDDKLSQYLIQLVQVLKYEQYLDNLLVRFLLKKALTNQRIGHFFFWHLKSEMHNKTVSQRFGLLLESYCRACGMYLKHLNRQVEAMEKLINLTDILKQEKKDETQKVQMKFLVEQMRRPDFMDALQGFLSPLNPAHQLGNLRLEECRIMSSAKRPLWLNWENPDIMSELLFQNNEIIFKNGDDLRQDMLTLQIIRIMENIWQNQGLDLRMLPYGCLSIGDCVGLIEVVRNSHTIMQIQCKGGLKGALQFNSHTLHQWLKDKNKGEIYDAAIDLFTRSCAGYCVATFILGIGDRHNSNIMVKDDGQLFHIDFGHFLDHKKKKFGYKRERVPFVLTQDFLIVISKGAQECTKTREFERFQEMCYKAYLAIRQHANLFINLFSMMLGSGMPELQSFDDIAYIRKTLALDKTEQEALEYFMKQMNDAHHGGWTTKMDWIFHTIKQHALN
For orientation: IC50 means the point on the concentration scale where inhibition reaches its midpoint. As to `Cc1ccc(OCC(=O)Nc2ccc(-c3nnc(-c4ccco4)o3)cc2)cc1`, the IC50 stood at 40 µM.

`Cc1cccc(NC(=O)c2ccc(Cn3cnc4ccccc4c3=O)o2)n1`: the half-inhibitory concentration (IC50) was 28 µM.

Compound `Cc1nc(N/C(N)=N/C(=O)c2ccccc2N)nc2ccccc12` yielded a half-inhibitory concentration (IC50) of 23 µM.

For the compound `CCOc1ccc2nc3cc(/N=C/c4ccco4)ccc3c(N)c2c1`, the IC50 was determined as 40 µM.
